Values quoted from earlier work, collected in patent publication US20250312496A1, “PROSTATE SPECIFIC MEMBRANE ANTIGEN (PSMA) LIGANDS” (Deutsches Krebsforschungszentrum Stiftung des öffentlichen …, priority 2022, published 2025).

System: prostate cancer

In the case of `O=C(O)CC[C@H](NC(=O)N[C@@H](CCCCNC(=O)[C@H](Cc1ccc2ccccc2c1)NC(=O)[C@H]1CC[C@H](CNC(=O)CN2CCN(CC(=O)O)CCN(CC(=O)O)CCN(CC(=O)O)CC2)CC1)C(=O)O)C(=O)O` [225Ac-PSMA-617, metal not drawn], the PSA value (both patients) is listed as “fell below the detectability limit” and the response of patients (two patients with extremely advanced and end-stage disease) is listed as “complete remission”.
